Test: GM1 plasma levels after intramuscular administration
Type: in vivo, New Zealand rabbits
Conditions: 2 mg/kg i.m.
Method: Microspheres of different dimensions of HYAFF-11 containing GM1 (10-40 μm) were prepared as described in Examples 29-30.
The ganglioside was administered by intramuscular route to groups of New Zealand rabbits (weighing 2.5 kg) at a concentration of 2 mg/kg.
At the set times, 2.5 ml of blood was withdrawn from the median artery of the ear. Each blood sample was incubated at 37° C. for one hour and then refrigerated overnight at 4° C. The samples were then centrifuged and the upper layer of serum was removed. 2 ml of tetrahydrofurane (THF) were added to 500 μl of serum for the determination of the GM1 content. The sample was stirred and centrifuged and the upper layer was stored. The precipitate was treated twice with […] of THF and 500 μl of phosphate buffer (50 mM) and centrifuged. The upper layers thus obtained were extracted with ethyl ether after separation of the aqueous phase, the organic phase was further extracted with water. The two aqueous phases were then mixed and freeze-dried. The freeze-dried product was redissolved in water and the GM1 content determined by the ELISA test.

monosialoganglioside GM1
Area under curve after i.m. administration of GM1 (1st study): 127.74 µg/h/mL
Area under curve after i.m. administration of GM1 (2nd study): 134.43 µg/h/mL

Source: patent US6066340A, “Process for the preparation of microspheres containing biologically active components” (Fidia S.p.A., priority 1991, dated 2000)
